One assay concerns Aβ production. Nature of the assay: Cellular Aβ IC50 determination (Aβ40 sandwich ELISA). It is filed as cell-based. Conditions: Cricetulus griseus, Chinese hamster ovary cells over-expressing human APP695 with London and Swedish mutations, 24 h. The procedure: The potency of compounds against memapsin 2 activity was determined in a cellular assay of Aβ production. […] Chinese hamster ovary cells that over-express human APP695 with the London and Swedish mutations were seeded in multi-well plates at 10% confluency. Compounds were dissolved in DMSO to concentrations near 1 mM, and diluted into culture media to a final concentration near 4 μM (final 0.4% DMSO). Compounds were diluted serially and applied to cells in multi-well plates 48 h after seeding. Incubation was continued in 5% CO2 at 37 degrees C. for 24 h. Aliquots were removed and assayed for Aβ40 content using a sandwich ELISA (BioSource International). Amount of Aβ40 over the range of concentration of compounds, relative to control incubations, were fit to a 4-parameter IC50 model.
Background: ELISA stands for enzyme-linked immunosorbent assay.

A further assay addresses memapsin 2 (Homo sapiens, UniProt P56817). The experiment in a line: Inhibition of memapsin 2 beta-secretase activity toward fluorogenic substrate FS-2. Particulars: pH 4, 37° C., 20 minutes pre-incubation, read-out: M2 Ki. It is filed as biochemical. The procedure: Potency of compounds were determined by measurement of their inhibition of memapsin 2 activity toward a fluorescent substrate. […] Briefly, assays were performed at pH 4, 37° C., by pre-incubation of memapsin 2 enzyme with compound for 20 minutes. Activity measure was initiated by addition of a fluorogenic substrate FS-2 (Bachem Americas, Torrance, Calif.). Fluorescent signal increase over time was measured as a rate of hydrolysis of the peptide substrate.

Our source for the IC50 and Ki values is US20080207527A1, “Bicyclic Compounds Which Inhibit Beta-Secretase Activity and Methods of Use Thereof” (CoMentis, Inc., priority 2004, published 2008).

Structures are written as SMILES.

Sequence of memapsin 2 (P56817 46-501): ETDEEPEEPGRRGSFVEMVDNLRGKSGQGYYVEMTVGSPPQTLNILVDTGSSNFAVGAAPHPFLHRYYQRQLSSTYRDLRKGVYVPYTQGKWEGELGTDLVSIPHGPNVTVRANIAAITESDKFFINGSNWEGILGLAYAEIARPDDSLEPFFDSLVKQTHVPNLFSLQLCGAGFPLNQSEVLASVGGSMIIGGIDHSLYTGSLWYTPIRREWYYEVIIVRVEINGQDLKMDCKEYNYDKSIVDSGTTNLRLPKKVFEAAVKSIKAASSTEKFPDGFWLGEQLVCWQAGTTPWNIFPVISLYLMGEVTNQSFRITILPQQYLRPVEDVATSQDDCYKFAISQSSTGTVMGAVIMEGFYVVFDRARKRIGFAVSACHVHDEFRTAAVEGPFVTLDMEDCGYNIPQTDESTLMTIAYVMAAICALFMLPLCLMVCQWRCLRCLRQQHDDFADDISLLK

For `CC(C)CNC(=O)C(NC(=O)C(C)CC(O)C(CC(C)C)NC(=O)c1cccc(C(=O)N(C)Cc2ccccc2)c1)C(C)C` (stereo not shown) [N1-benzyl-N3-(5-hydroxy-8-(1-(isobutylamino)-3-methyl-1-oxobutan-2-ylamino)-2,7-dimethyl-8-oxooctan-4-yl)-N1-methylisophthalamide], in the assay on Aβ production, the half-maximal inhibitory concentration (IC50) is > 20 µM. The Ki at memapsin 2 is < 0.405 µM.
The like results for `Cc1ccc(CN(C)C(=O)c2cccc(C(=O)NC(CC(C)C)C(O)CC(C)C(=O)NC(C(=O)NCC(C)C)C(C)C)c2)o1` (stereo not shown) [N1-(5-hydroxy-8-(1-(isobutylamino)-3-methyl-1-oxobutan-2-ylamino)-2,7-dimethyl-8-oxooctan-4-yl)-N3-methyl-N3-((5-methylfuran-2-yl)methyl)isophthalamide] were, in that order, > 20 µM and < 0.405 µM.
In the same order, the values of `Cc1csc(CN(C)C(=O)c2cccc(C(=O)NC(CC(C)C)C(O)CC(C)C(=O)NC(C(=O)NCC(C)C)C(C)C)n2)n1` (stereo not shown) [N2-(5-hydroxy-8-(1-(isobutylamino)-3-methyl-1-oxobutan-2-ylamino)-2,7-dimethyl-8-oxooctan-4-yl)-N6-methyl-N6-((4-methylthiazol-2-yl)methyl)pyridine-2,6-dicarboxamide] are > 20 µM and < 0.405 µM.
In the same order, the values of `Cc1nc(CN(C)C(=O)c2cccc(C(=O)NC(CC(C)C)C(O)CC(C)C(=O)NC(C(=O)NCC(C)C)C(C)C)c2)co1` (stereo not shown) [N1-(5-hydroxy-8-(1-(isobutylamino)-3-methyl-1-oxobutan-2-ylamino)-2,7-dimethyl-8-oxooctan-4-yl)-N3-methyl-N3-((2-methyloxazol-4-yl)methyl)isophthalamide] are > 20 µM and < 0.405 µM.
For the compound `COc1cccc(CN(C)C(=O)c2cccc(C(=O)NC(CC(C)C)C(O)CC(C)C(=O)NC(C(=O)NCC(C)C)C(C)C)c2)c1` (stereo not shown) [N1-(5-hydroxy-8-(1-(isobutylamino)-3-methyl-1-oxobutan-2-ylamino)-2,7-dimethyl-8-oxooctan-4-yl)-N3-(3-methoxybenzyl)-N3-methylisophthalamide], the IC50 with Aβ production is > 20 µM. Also, the Ki on memapsin 2 is 0.405 to 2 µM.
In the same order, the values of `CC(C)CC(NC(=O)c1cc(C(=O)NC(C)c2ccccc2)cc(N(C)S(C)(=O)=O)c1)C(O)CC(C)C(=O)NC(C(=O)NCC1CN(C)C1)C(C)C` (stereo not shown) [N1-(5-hydroxy-2,7-dimethyl-8-(3-methyl-1-((1-methylazetidin-3-yl)methylamino)-1-oxobutan-2-ylamino)-8-oxooctan-4-yl)-5-(N-methylmethylsulfonamido)-N3-(1-phenylethyl)isophthalamide] are < 5 µM and < 0.405 µM.
Consider `CC(C)CNC(=O)C(NC(=O)C(C)CC(O)C(CC(C)C)NC(=O)c1cc(C(=O)NC(C)c2ccccc2)cc(N(C)C(=O)OC2CCOC2)c1)C(C)C` (stereo not shown) [tetrahydrofuran-3-yl 3-(5-hydroxy-8-(1-(isobutylamino)-3-methyl-1-oxobutan-2-ylamino)-2,7-dimethyl-8-oxooctan-4-ylcarbamoyl)-5-(1-phenylethylcarbamoyl)phenyl(methyl)carbamate], for which the IC50 with Aβ production is > 20 µM. For the same compound, at memapsin 2, the Ki was in the range of 0.405 to 2 µM.
`Cc1nc(CN(C)C(=O)c2cccc(C(=O)NC(CC(C)C)C(O)CC(C)C(=O)NC(C(=O)NCC(C)C)C(C)C)c2)cs1` (stereo not shown) [N1-(5-hydroxy-8-(1-(isobutylamino)-3-methyl-1-oxobutan-2-ylamino)-2,7-dimethyl-8-oxooctan-4-yl)-N3-methyl-N3-((2-methylthiazol-4-yl)methyl)isophthalamide]: the Ki on memapsin 2 is < 0.405 µM.
For the compound `CC(C)CC(NC(=O)c1cc(C(=O)NCc2ccccc2)cc(N(C)S(C)(=O)=O)c1)C(O)CC(C)C(=O)NC(C(=O)NC(C)C)C(C)C` (stereo not shown) [N1-benzyl-N3-(5-hydroxy-8-(1-(isopropylamino)-3-methyl-1-oxobutan-2-ylamino)-2,7-dimethyl-8-oxooctan-4-yl)-5-(N-methylmethylsulfonamido)isophthalamide], the IC50 with Aβ production is 5 to 10 µM.
Regarding `CCCN(CCC)C(=O)c1cccc(C(=O)NC(CC(C)C)C(O)CC(C)C(=O)NCC(C)C)c1` (stereo not shown) [N1-(5-hydroxy-8-(isobutylamino)-2,7-dimethyl-8-oxooctan-4-yl)-N3,N3-dipropylisophthalamide], the inhibition constant Ki at memapsin 2 lay in the range of 2 to 5 µM.
`CC(C)CNC(=O)C(NC(=O)C(C)CC(O)C(CC(C)C)NC(=O)c1cc(C(=O)N(C)Cc2ccncc2)cc(N(C)S(C)(=O)=O)c1)C(C)C` (stereo not shown) [N1-(5-hydroxy-8-(1-(isobutylamino)-3-methyl-1-oxobutan-2-ylamino)-2,7-dimethyl-8-oxooctan-4-yl)-N3-methyl-5-(N-methylmethylsulfonamido)-N3-(pyridin-4-ylmethyl)isophthalamide]: in the assay on Aβ production, the IC50 was > 20 µM. For the same compound, at memapsin 2, the Ki is < 0.405 µM.
As to `CCc1csc(CNC(=O)c2cc(C(=O)NC(CC(C)C)C(O)CC(C)C(=O)NC(C(=O)NCC(C)C)C(C)C)cc(N(C)S(C)(=O)=O)c2)n1` (stereo not shown) [N1-((4-ethylthiazol-2-yl)methyl)-N3-(5-hydroxy-8-(1-(isobutylamino)-3-methyl-1-oxobutan-2-ylamino)-2,7-dimethyl-8-oxooctan-4-yl)-5-(N-methylmethylsulfonamido)isophthalamide], the Ki on memapsin 2 is < 0.405 µM.
Same read-out and setting: under `COc1cccc(CNC(=O)CNC(=O)C(C)CC(O)C(CC(C)C)NC(=O)c2cc(C(=O)NC(C)c3ccccc3)cc(N(C)S(C)(=O)=O)c2)c1` (stereo not shown) [N1-(5-hydroxy-8-(2-(3-methoxybenzylamino)-2-oxoethylamino)-2,7-dimethyl-8-oxooctan-4-yl)-5-(N-methylmethylsulfonamido)-N3-(1-phenylethyl)isophthalamide] stands 0.405 to 2 µM.
In the case of `CC(C)CC(NC(=O)c1cc(C(=O)NC(C)c2ccccc2)cc(N(C)S(C)(=O)=O)c1)C(O)CC(C)C(=O)NC(C(=O)NC(C)C)C(C)C` (stereo not shown) [N1-(5-hydroxy-8-(1-(isopropylamino)-3-methyl-1-oxobutan-2-ylamino)-2,7-dimethyl-8-oxooctan-4-yl)-5-(N-methylmethylsulfonamido)-N3-(1-phenylethyl)isophthalamide], the 50% inhibitory concentration (IC50) in the assay with Aβ production was < 5 µM.
On to `Cc1csc(CN(C)C(=O)c2cncc(C(=O)NC(CC(C)C)C(O)CC(C)C(=O)NC(C(=O)NCC(C)C)C(C)C)c2)n1` (stereo not shown) [N3-(5-hydroxy-8-(1-(isobutylamino)-3-methyl-1-oxobutan-2-ylamino)-2,7-dimethyl-8-oxooctan-4-yl)-N5-methyl-N5-((4-methylthiazol-2-yl)methyl)pyridine-3,5-dicarboxamide], for which, in the assay with Aβ production, the IC50 was 5 to 10 µM. Further, the Ki on memapsin 2 was < 0.405 µM.
For the compound `CCN(Cc1ccncc1)C(=O)c1cncc(C(=O)NC(CC(C)C)C(O)CC(C)C(=O)NC(C(=O)NCC(C)C)C(C)C)c1` (stereo not shown) [N3-ethyl-N5-(5-hydroxy-8-(1-(isobutylamino)-3-methyl-1-oxobutan-2-ylamino)-2,7-dimethyl-8-oxooctan-4-yl)-N3-(pyridin-4-ylmethyl)pyridine-3,5-dicarboxamide], the inhibitory constant (Ki) on memapsin 2 is > 5 µM.
On the same count and under the same terms, as for `CC(C)CC(NC(=O)c1cc(C(=O)NC(C)c2ccccc2)cc(N(C)S(C)(=O)=O)c1)C(O)CC(NC(=O)OCc1ccccc1)C(=O)NC(C(=O)NC(C)C)C(C)C` (stereo not shown) [benzyl 4-hydroxy-1-(1-(isopropylamino)-3-methyl-1-oxobutan-2-ylamino)-7-methyl-5-(3-(N-methylmethylsulfonamido)-5-(1-phenylethylcarbamoyl)benzamido)-1-oxooctan-2-ylcarbamate], the figure is 0.405 to 2 µM; as for `Cc1csc(CN(C(=O)c2cccc(C(=O)NC(CC(C)C)C(O)CC(C)C(=O)NC(C(=O)NCC(C)C)C(C)C)c2)C(C)C)n1` (stereo not shown) [N1-(5-hydroxy-8-(1-(isobutylamino)-3-methyl-1-oxobutan-2-ylamino)-2,7-dimethyl-8-oxooctan-4-yl)-N3-isopropyl-N3-((4-methylthiazol-2-yl)methyl)isophthalamide], < 0.405 µM.
Still for that read-out and setting: under `CCCN(CCC)C(=O)c1cc(NC(=O)OC(C)(C)C)cc(C(=O)NC(CC(C)C)C(O)CC(OC)C(=O)NC(C(=O)NC(C)C)C(C)C)c1` (stereo not shown) [tert-butyl 3-(dipropylcarbamoyl)-5-(5-hydroxy-8-(1-(isopropylamino)-3-methyl-1-oxobutan-2-ylamino)-7-methoxy-2-methyl-8-oxooctan-4-ylcarbamoyl)phenylcarbamate] stands > 5 µM; under `CC(C)CNC(=O)C(NC(=O)C(C)CC(O)C(CC(C)C)NC(=O)c1cc(OCC(O)CN=[N+]=[N-])cc(C(=O)NC(C)c2ccccc2)c1)C(C)C` (stereo not shown) [5-(3-azido-2-hydroxypropoxy)-N1-(5-hydroxy-8-(1-(isobutylamino)-3-methyl-1-oxobutan-2-ylamino)-2,7-dimethyl-8-oxooctan-4-yl)-N3-(1-phenylethyl)isophthalamide], 0.405 to 2 µM.
On the same count and under the same terms, under `CCCN(CCC)C(=O)c1cncc(C(=O)NC(CC(C)C)C(O)CC(C)C(=O)NC(C(=O)NC(C)C)C(C)C)c1` (stereo not shown) [N3-(5-hydroxy-8-(1-(isopropylamino)-3-methyl-1-oxobutan-2-ylamino)-2,7-dimethyl-8-oxooctan-4-yl)-N5,N5-dipropylpyridine-3,5-dicarboxamide] stands < 0.405 µM.
As for `CC(C)CNC(=O)C(NC(=O)C(C)CC(O)C(CC(C)C)NC(=O)c1cc(OCC2CNC(=O)O2)cc(C(=O)NC(C)c2ccccc2)c1)C(C)C` (stereo not shown) [N1-(5-hydroxy-8-(1-(isobutylamino)-3-methyl-1-oxobutan-2-ylamino)-2,7-dimethyl-8-oxooctan-4-yl)-5-((2-oxooxazolidin-5-yl)methoxy)-N3-(1-phenylethyl)isophthalamide], on memapsin 2, the Ki is < 0.405 µM.

The term IC50 denotes the concentration that inhibits the measured activity by half. Usually Ki stands for the dissociation constant of the complex between target and ligand, obtained from inhibition or displacement.
